In US20230372355A1 (AXSOME THERAPEUTICS, INC., priority 2022, published 2023):

Assays:
[1] = test system: patients with moderate and severe migraine and a history of inadequate response to prior acute treatments; assay: Phase 3 randomized, double-blind, placebo- and active-controlled trial, acute treatment of moderate and severe migraine (Example 1), efficacy; type: in vivo, human
Text: Exclusion criteria included cluster headaches or other types of migraines, chronic daily headache 15 non-migraine headache days per month), history of significant cardiovascular disease, and uncontrolled hypertension.

[2] = test system: patients with moderate and severe migraine; conditions: human, in vivo

CN(C)CCc1c[nH]c2ccc(Cn3cncn3)cc12 [rizatriptan, Rizatriptan]
percentage of patients experiencing sustained pain relief from 2 hours to 24 hours after dosing ([1]; 2-24 hours): 43.9% | proportion of patients with sustained pain freedom from 2 hours to 48 hours ([1]; 2-48 hours): 8.8% | proportion of patients experiencing pain relief […] after dosing ([1]; […] after dosing): 52.5% | Any Treatment-Emergent Adverse Event, % of subjects [2]: 15.4% | Any Treatment-Emergent Adverse Event, number of subjects [2]: 67 | Dizziness, % of subjects [2]: 2.1% | Dizziness, number of subjects [2]: 9 | Nausea, % of subjects [2]: 4.8% | Nausea, number of subjects [2]: 21 | Somnolence, % of subjects [2]: 2.1% | Somnolence, number of subjects [2]: 9
